Source: a polymer gas permeability compilation

SMILES	CO2 permeability	N2 permeability	O2 permeability	CH4 permeability	H2 permeability
*/C=C/c1ccc(*)cc1[Si](C)(C)C(C)(C)C (repeat unit)	26 Barrer	1.5 Barrer	6.5 Barrer	–	–
*/C=C/c1ccc(*)cc1[Si](C)(C)CCCC (repeat unit)	14 Barrer	1.1 Barrer	3.5 Barrer	–	–
*/C=C/c1ccc(*)cc1[Si](C)(C)CCCCCCCC (repeat unit)	60 Barrer	3.9 Barrer	12 Barrer	–	–
*/C=C/c1ccc(*)cc1[Si](C)(C)CCCCCCCCCCCCCCCCCC (repeat unit)	61 Barrer	4.5 Barrer	12 Barrer	–	–
*C(=C(*)c1ccc([Si](C)(C)CCCCCCCC)cc1)c1ccc(CCCC)cc1 (repeat unit)	110 Barrer	7.9 Barrer	25 Barrer	–	–
*C(C)=C(*)C(C)C (repeat unit)	10700 Barrer	1250 Barrer	2700 Barrer	2690 Barrer	5720 Barrer
*C(C)=C(*)CC(C)C (repeat unit)	900 Barrer	93 Barrer	245 Barrer	190 Barrer	750 Barrer
*C(C)=C(*)CCCCC (repeat unit)	200 Barrer	21 Barrer	57 Barrer	51 Barrer	150 Barrer
*CC(*)(C)C (repeat unit)	–	0.76 Barrer	2.89 Barrer	–	13.3 Barrer
*CC(*)C (repeat unit)	9.2 Barrer	0.5 Barrer	1.41 Barrer	–	–
*CC(*)OC1C2CC3CC(C2)CC1C3 (repeat unit)	25.2 Barrer	1.69 Barrer	6.01 Barrer	–	–
*CC(*)OC1CC2CC1C1CCCC21 (repeat unit)	12.6 Barrer	1.2 Barrer	3.06 Barrer	–	–
*CC(*)OC1CC2CCC1C2 (repeat unit)	25 Barrer	0.96 Barrer	3.55 Barrer	–	–
*CC(*)OCc1ccccc1 (repeat unit)	11.1 Barrer	0.79 Barrer	2.33 Barrer	–	–
*CC(O)CO* (repeat unit)	0.012 Barrer	–	0.0038 Barrer	–	0.0228 Barrer
*CC1CC(*)OCO1 (repeat unit)	–	0.018 Barrer	0.024 Barrer	–	0.93 Barrer
*CCC(F)(F)C(*)(F)F (repeat unit)	1.98 Barrer	0.182 Barrer	0.532 Barrer	–	–
*CO* (repeat unit)	0.45 Barrer	0.024 Barrer	0.09 Barrer	–	–
*Cc1cc(Cl)c(C*)cc1Cl (repeat unit)	0.783 Barrer	0.0271 Barrer	0.181 Barrer	–	–
*Cc1ccc(C*)c(C)c1 (repeat unit)	0.265 Barrer	0.0157 Barrer	0.0572 Barrer	–	0.994 Barrer
*Cc1ccc(C*)c(Cl)c1 (repeat unit)	0.0867 Barrer	0.006 Barrer	0.0456 Barrer	–	0.931 Barrer
*Cc1ccc(C*)cc1 (repeat unit)	1.3 Barrer	0.047 Barrer	0.235 Barrer	–	3.2 Barrer
*Nc1ccc(*)cc1OC (repeat unit)	1.06 Barrer	0.047 Barrer	0.202 Barrer	–	6.04 Barrer
*c1c(C)cc(C)c(-n2c(=O)c3cc4c(=O)n(*)c(=O)c4cc3c2=O)c1C (repeat unit)	–	8.44 Barrer	36.3 Barrer	–	235 Barrer

The remaining lines, values ahead:

CO2 permeability	N2 permeability	O2 permeability	CH4 permeability	H2 permeability	SMILES
160 Barrer	11 Barrer	37 Barrer	–	–	*C(=C(*)c1ccc(CCCC)cc1)c1ccccc1 (repeat unit)
340 Barrer	11 Barrer	45 Barrer	–	–	*C(=C(*)c1ccc(S(=O)(=O)O)cc1)c1ccc(C(C)(C)C)cc1 (repeat unit)
21 Barrer	0.28 Barrer	2.5 Barrer	–	–	*C(=C(*)c1ccc(S(=O)(=O)O)cc1)c1ccc(S(=O)(=O)O)cc1 (repeat unit)
7200 Barrer	1300 Barrer	2100 Barrer	3300 Barrer	3900 Barrer	*C(=C(*)c1cccc(O[Si](C)(C)C(C)(C)C)c1)c1ccc(C(C)(C)C)cc1 (repeat unit)
2900 Barrer	430 Barrer	810 Barrer	1100 Barrer	1600 Barrer	*C(=C(*)c1cccc(O[Si](C)(C)C(C)(C)C)c1)c1ccc([Si](C)(C)C)cc1 (repeat unit)
4700 Barrer	610 Barrer	1200 Barrer	1500 Barrer	2100 Barrer	*C(=C(*)c1cccc([Si](C)(C)C)c1)c1ccccc1 (repeat unit)
54 Barrer	2.58 Barrer	15.2 Barrer	0.911 Barrer	–	*C(=O)c1ccc(C(c2ccc3c(c2)C(=O)n2c-3nc3cc4nc(*)n(*)c4cc32)(C(F)(F)F)C(F)(F)F)cc1* (repeat unit)
2.14 Barrer	0.0729 Barrer	0.51 Barrer	0.069 Barrer	7.5 Barrer	*C(=O)c1ccc(C2(c3ccc(C(=O)c4ccc(Oc5ccc(C(=O)c6ccc(C(=O)c7ccc(Oc8ccc(*)cc8)cc7)cc6)cc5)cc4)cc3)OC(=O)c3ccccc32)cc1 (repeat unit)
0.131 Barrer	–	0.0132 Barrer	–	–	*CCOC(=O)c1ccc2cc(C(=O)O*)ccc2c1 (repeat unit)
121 Barrer	5.8 Barrer	27.5 Barrer	–	212 Barrer	*NC(=O)c1ccc(C(c2ccc(C(=O)Nc3c(C)cc4c(c3C)C3c5ccccc5C4c4cc(C)c(*)c(C)c43)cc2)(C(F)(F)F)C(F)(F)F)cc1 (repeat unit)
4.96 Barrer	0.23 Barrer	1.16 Barrer	–	–	*Nc1ccc(C(=O)c2ccc(NC(=O)c3cc(C(*)=O)cc(C(C)(C)C)c3)cc2)cc1 (repeat unit)
0.32 Barrer	–	0.069 Barrer	–	–	*Nc1ccc(C(=O)c2ccc(NC(=O)c3cccc(C(*)=O)c3)cc2)cc1 (repeat unit)
2160 Barrer	116 Barrer	434 Barrer	–	–	*Oc1cc2c(cc1O*)C1(CC2(C)C)CC(C)(C)c2cc3c(cc21)Oc1c(c(C(F)(F)F)c(*)c(*)c1S(=O)(=O)c1ccccc1)O3 (repeat unit)
81 Barrer	5.92 Barrer	14 Barrer	–	–	*Oc1ccc(S(=O)(=O)c2ccc(Oc3c(C)cc(C(c4cc(C)c(*)c(C)c4)(C(F)(F)F)C(F)(F)F)cc3C)cc2C(O)(C(F)(F)F)C(F)(F)F)c(C(O)(C(F)(F)F)C(F)(F)F)c1 (repeat unit)
5.4 Barrer	0.22 Barrer	1.5 Barrer	–	–	*Oc1ccc(S(=O)(=O)c2ccc(Oc3ccc(C(C)(C)c4ccc(*)c(C(O)(C(F)(F)F)C(F)(F)F)c4)cc3C(O)(C(F)(F)F)C(F)(F)F)cc2)cc1 (repeat unit)
–	–	–	–	17.2 Barrer	*Oc1ccc2nc(-c3ccccc3)c(-c3ccc(-c4nc5cc(*)ccc5nc4-c4ccccc4)cc3)nc2c1 (repeat unit)
–	1 Barrer	5 Barrer	–	46.4 Barrer	*c1c(C)cc(C)c(N2C(=O)c3ccc(C(=O)c4ccc5c(c4)C(=O)N(*)C5=O)cc3C2=O)c1C (repeat unit)
4.2 Barrer	0.15 Barrer	0.91 Barrer	–	11 Barrer	*c1ccc(Oc2ccc(C(=O)c3ccc(Oc4ccc(C(*)(c5ccccc5)C(F)(F)F)cc4)cc3)cc2)cc1 (repeat unit)
2.8 Barrer	0.11 Barrer	0.54 Barrer	–	8.9 Barrer	*c1ccc(Oc2ccc(C(C)(C)c3ccc(Oc4ccc(N5C(=O)c6ccc(C(=O)c7ccc8c(c7)C(=O)N(*)C8=O)cc6C5=O)cc4)cc3)cc2)cc1 (repeat unit)
26.3 Barrer	1.1 Barrer	5.85 Barrer	0.6 Barrer	60.2 Barrer	*c1ccc2c3c(ccc2c1)OC1CC3c2c(ccc3cc(N4C(=O)c5ccc(C(c6ccc7c(c6)C(=O)N(*)C7=O)(C(F)(F)F)C(F)(F)F)cc5C4=O)ccc23)O1 (repeat unit)
29.9 Barrer	1.2 Barrer	7.2 Barrer	0.7 Barrer	73 Barrer	*c1ccc2c3c(ccc2c1)OC1Oc2ccc4cc(N5C(=O)c6ccc(C(c7ccc8c(c7)C(=O)N(*)C8=O)(C(F)(F)F)C(F)(F)F)cc6C5=O)ccc4c2C31 (repeat unit)
1.05 Barrer	–	–	0.014 Barrer	–	*c1cccc(C(c2cccc(N3C(=O)c4ccc(C(=O)c5ccc6c(c5)C(=O)N(*)C6=O)cc4C3=O)c2)(C(F)(F)F)C(F)(F)F)c1 (repeat unit)
0.598 Barrer	0.016 Barrer	0.149 Barrer	–	3.75 Barrer	*c1cccc(N2C(=O)c3ccc(Oc4ccc(Oc5ccc6c(c5)C(=O)N(*)C6=O)cc4)cc3C2=O)c1 (repeat unit)
0.301 Barrer	0.012 Barrer	0.081 Barrer	0.0064 Barrer	–	*c1cccc(N2C(=O)c3ccc(Oc4ccc5c(c4)C(=O)N(*)C5=O)cc3C2=O)c1 (repeat unit)
0.5 Barrer	0.0181 Barrer	0.13 Barrer	0.008 Barrer	3.6 Barrer	*c1cccc(Oc2cccc(-n3c(=O)c4cc5c(=O)n(*)c(=O)c5cc4c3=O)c2)c1 (repeat unit)
2.1 Barrer	0.1 Barrer	0.68 Barrer	0.032 Barrer	14 Barrer	*c1cccc(Oc2cccc(N3C(=O)c4ccc(C(c5ccc6c(c5)C(=O)N(*)C6=O)(C(F)(F)F)C(F)(F)F)cc4C3=O)c2)c1 (repeat unit)
2.34 Barrer	0.095 Barrer	0.73 Barrer	0.0578 Barrer	–	*c1cccc(S(=O)(=O)c2cccc(N3C(=O)c4ccc(C(c5ccc6c(c5)C(=O)N(*)C6=O)(C(F)(F)F)C(F)(F)F)cc4C3=O)c2)c1 (repeat unit)
